Laboratory results as given in patent US20260325540A1 (priority 2023, published 2026).

Biological target: HCoV-229E 3CL protease (Human coronavirus 229E, UniProt P0C6U2)
Assay: FRET based protease assay, HCoV-229E 3CL
Type: biochemical
Conditions: 229E IC50, 6 nM H229E-CoV Chis-3CLpro, 6 μM peptide 1 substrate, 25° C., 1.5 hrs, pH 7.5

Chain of HCoV-229E 3CL protease (P0C6U2 2966-3267): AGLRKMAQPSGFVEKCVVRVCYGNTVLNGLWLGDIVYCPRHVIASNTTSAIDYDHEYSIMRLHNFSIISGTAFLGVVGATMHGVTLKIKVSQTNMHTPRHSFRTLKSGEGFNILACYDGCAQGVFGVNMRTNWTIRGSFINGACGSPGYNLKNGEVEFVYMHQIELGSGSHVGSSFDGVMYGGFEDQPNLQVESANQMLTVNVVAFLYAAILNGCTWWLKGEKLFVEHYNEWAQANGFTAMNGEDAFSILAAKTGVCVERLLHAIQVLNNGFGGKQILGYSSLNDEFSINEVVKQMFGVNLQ

SMILES | IC50
N#C[C@@H]1C[C@@H]2C(=O)NC[C@@H]2CCCC[C@H](NC(=O)C(F)(F)F)C(=O)N2C[C@@H]3CCC[C@@H]3[C@H]2C(=O)N1 [Example 88] | < 100 nM
CC1(C)[C@@H]2[C@H]3C(=O)N[C@H](C#N)C[C@@H]4C(=O)NC[C@@H]4CCCC[C@H](NS(=O)(=O)C4CCC4)C(=O)N3C[C@@H]21 [Example 160] | < 100 nM
CC1(C)[C@@H]2[C@H]3C(=O)N[C@H](C#N)C[C@@H]4C(=O)NC[C@@H]4/C=C/CC[C@H](NC(=O)C4CC(F)(F)C4)C(=O)N3C[C@@H]21 [Example 83] | < 100 nM
CC(C)C[C@@H]1NC(=O)[C@H](Cc2ccccc2)CCC[C@H]2CNC(=O)[C@H]2C[C@@H](C=O)NC1=O [Example 12] | < 100 nM
CC(C)C[C@@H]1NC(=O)CCCC[C@H]2CNC(=O)[C@H]2C[C@@H](C=O)NC1=O [Example 2] | 1000 to 20000 nM
CC1(C)C[C@H]2C(=O)N[C@H](C#N)C[C@@H]3C(=O)NC[C@@H]3CCCC[C@H](NC(=O)OC(C)(C)C)C(=O)N2C1 [Example 130] | < 100 nM
CC1(C)[C@@H]2[C@H]3C(=O)N[C@H](C#N)C[C@@H]4C(=O)NC[C@@H]4CCCC[C@H](NS(=O)(=O)C4CC4)C(=O)N3C[C@@H]21 [Example 156] | < 100 nM
CC(C)(C)OC(=O)N[C@H]1CCCC[C@H]2CNC(=O)[C@H]2C[C@@H](C#N)NC(=O)[C@@H]2[C@H]3CC[C@H](C3)N2C1=O [Example 127] | 1000 to 20000 nM
CC1(C)[C@@H]2[C@H]3C(=O)N[C@H](C#N)C[C@@H]4C(=O)NCC[C@@H]4CCCC[C@H](NC(=O)C(F)(F)F)C(=O)N3C[C@@H]21 [Example 104] | < 100 nM
CC1(C)[C@@H]2[C@H]3C(=O)N[C@H](C#N)C[C@@H]4C(=O)NC[C@@H]4CCCC[C@H](NC(=O)C4CC5(CCC5)C4)C(=O)N3C[C@@H]21 (stereo partly shown) [Example 81] | < 100 nM
CC(C)(C)C(=O)N[C@H]1CCCC[C@H]2CNC(=O)[C@@H]2C[C@@H](C#N)NC(=O)[C@@H]2[C@@H]3[C@H](CN2C1=O)C3(C)C [Example 67] | 100 to 1000 nM
CC1(C)[C@@H]2[C@H]3C(=O)N[C@H](C#N)C[C@@H]4C(=O)NC[C@@H]4CCCC[C@H](Nc4ccnc(C(F)(F)F)n4)C(=O)N3C[C@@H]21 [Example 164] | < 100 nM
CC1(C)[C@@H]2[C@H]3C(=O)N[C@H](C#N)C[C@@H]4C(=O)NC[C@@H]4CCCC[C@H](NC(=O)C4CCC4)C(=O)N3C[C@@H]21 [Example 76] | < 100 nM
N#C[C@@H]1C[C@@H]2C(=O)NC[C@@H]2/C=C/CC[C@H](NC(=O)C(F)(F)F)C(=O)N2C[C@@H]3CCC[C@@H]3[C@H]2C(=O)N1 [Example 101] | < 100 nM
CC(C)(C)C(=O)N[C@H]1CCCC[C@H]2CCNC(=O)[C@@H]2C[C@@H](C#N)NC(=O)[C@@H]2[C@@H]3[C@H](CN2C1=O)C3(C)C [Example 65] | 1000 to 20000 nM
CC(C)(C)C(=O)N[C@H]1CC/C=C/[C@H]2CNC(=O)[C@H]2C[C@@H](C#N)NC(=O)[C@@H]2[C@H]3CCC[C@H]3CN2C1=O [Example 86] | < 100 nM
CC1(C)[C@@H]2[C@H]3C(=O)N[C@H](C#N)C[C@@H]4C(=O)NC[C@@H]4CCCC[C@H](NC(=O)CC4CC(F)(F)C4)C(=O)N3C[C@@H]21 [Example 89] | < 100 nM
CC1(C)[C@@H]2[C@H]3C(=O)N[C@H](C#N)C[C@@H]4C(=O)NC[C@@H]4CCCC[C@H](Nc4nccc(C(F)(F)F)n4)C(=O)N3C[C@@H]21 [Example 162] | < 100 nM
CC(C)C[C@@H]1NC(=O)[C@@H](NC(=O)OC(C)(C)C)CCC[C@H]2CNC(=O)[C@@H]2C[C@@H](C=O)NC1=O [Example 19] | < 100 nM
CC(C)(C)C(=O)N[C@H]1C/C=C/[C@H]2CNC(=O)[C@H]2C[C@@H](C#N)NC(=O)[C@@H]2[C@@H]3[C@H](CN2C1=O)C3(C)C [Example 63] | < 100 nM

SMILES | IC50
CC(C)C[C@@H]1NC(=O)[C@@H](C2CCCC2)CCC[C@H]2CNC(=O)[C@H]2C[C@@H](C=O)NC1=O [Example 13] | 100 to 1000 nM
CC1(C)[C@@H]2[C@H]3C(=O)N[C@H](C#N)C[C@@H]4C(=O)NC[C@@H]4/C=C/CC[C@H](NC(=O)C(F)(F)F)C(=O)N3C[C@@H]21 [Example 108] | < 100 nM
CC1(C)[C@@H]2[C@H]3C(=O)N[C@H](C#N)C[C@@H]4C(=O)NC[C@@H]4CCCC[C@H](N)C(=O)N3C[C@@H]21 [Example 161] | < 100 nM
CC(C)(C)OC(=O)N[C@H]1CCCC[C@H]2CNC(=O)[C@H]2C[C@@H](C#N)NC(=O)[C@H]2N(CC(F)(F)C2(C)C)C1=O [Example 146] | 100 to 1000 nM
CC(C)C[C@@H]1NC(=O)CCCCCC[C@H]2CNCC(=O)[C@@H]2C[C@@H](C=O)NC1=O [Example 52] | 100 to 1000 nM
CC1(C)[C@@H]2[C@H]3C(=O)N[C@H](C#N)C[C@@H]4C(=O)NCC[C@@H]4CCCC[C@H](NC(=O)c4ccc(F)cc4F)C(=O)N3C[C@@H]21 [Example 129] | < 100 nM
CC1(C)[C@@H]2[C@H]3C(=O)N[C@H](C#N)C[C@@H]4C(=O)NC[C@@H]4CCCC[C@H](NC(=O)c4cc(Cl)ccc4Cl)C(=O)N3C[C@@H]21 [Example 133] | < 100 nM
CC1(C)[C@@H]2[C@H]3C(=O)N[C@H](C#N)C[C@@H]4C(=O)NC[C@@H]4CCCC[C@H](Nc4cc(C(F)(F)F)ncn4)C(=O)N3C[C@@H]21 [Example 163] | < 100 nM
CC(C)(C)C(=O)N[C@H]1CC/C=C/[C@H]2CNC(=O)[C@H]2C[C@@H](C#N)NC(=O)[C@@H]2[C@@H]3[C@H](CN2C1=O)C3(C)C [Example 61] | < 100 nM
CC1(C)[C@@H]2[C@H]3C(=O)N[C@H](C#N)C[C@@H]4C(=O)NC[C@@H]4CCCC[C@H](NC(=O)C(F)(F)F)C(=O)N3C[C@@H]21 [Example 87] | < 100 nM
CC1(C)[C@@H]2[C@H]3C(=O)N[C@H](C#N)C[C@@H]4C(=O)NC[C@@H]4CCCC[C@H](NC(=O)C4CCC(F)(F)CC4)C(=O)N3C[C@@H]21 [Example 68] | < 100 nM
CC(C)(C)OC(=O)NN1CCCC[C@H]2CNC(=O)[C@H]2C[C@@H](C#N)NC(=O)[C@@H]2[C@@H]3[C@H](CN2C1=O)C3(C)C [Example 168] | 1000 to 20000 nM
CC(C)(C)C[C@@H]1NC(=O)[C@@H](NC(=O)C2(C(F)(F)F)CC2)CCCC[C@H]2CNC(=O)[C@H]2C[C@@H](C#N)NC1=O [Example 149] | < 100 nM
CC(C)(C)OC(=O)N[C@H]1CCCC[C@H]2CCNC(=O)[C@H]2C[C@@H](C#N)NC(=O)[C@@H]2[C@@H]3[C@H](CN2C1=O)C3(C)C [Example 110] | < 100 nM
CC1(C)[C@@H]2[C@H]3C(=O)N[C@H](C#N)C[C@@H]4C(=O)NC[C@@H]4CCCC[C@H](NC(=O)c4ccncn4)C(=O)N3C[C@@H]21 [Example 91] | < 100 nM
CC(C)C[C@@H]1NC(=O)[C@@H](C2CCCC2)CCC[C@@H]2CNC(=O)[C@@H]2C[C@@H](C=O)NC1=O [Example 14] | 100 to 1000 nM
CC(C)(F)C[C@@H]1NC(=O)[C@@H](NC(=O)OC(C)(C)C)CCCC[C@H]2CNC(=O)[C@H]2C[C@@H](C#N)NC1=O [Example 138] | 100 to 1000 nM
CC1(C)[C@@H]2[C@H]3C(=O)N[C@H](C#N)C[C@@H]4C(=O)NC[C@@H]4CCCC[C@H](NC(=O)c4ccc(F)cc4F)C(=O)N3C[C@@H]21 [Example 103] | < 100 nM
CC(C)C[C@@H]1NC(=O)CCCCC[C@@H]2CCNC(=O)[C@H]2C[C@@H](C=O)NC1=O [Example 33] | 1000 to 20000 nM
CC1(C)[C@@H]2[C@H]3C(=O)N[C@H](C#N)C[C@@H]4C(=O)NCC[C@@H]4CCCC[C@H](NC(=O)C45CC(C(F)(F)F)(C4)C5)C(=O)N3C[C@@H]21 [Example 135] | 100 to 1000 nM
